Results on one compound are retold here after patent publication US20080188542A1, “NOVEL INDOLE POLYMORPHS” (Wyeth, priority 2007, published 2008).

Values after ≈ are worked out from the molar mass of the structure shown.

The series is described as follows: Solubility of polymorph A at room temperature (measurements taken at equilibrium). In kind it is physicochemical. Conditions: for solubility: thermodynamic from solid. As for the experimental part: The polymorph A of [1-(4-tert-Butylbenzyl)-5-(3-methylphenyl)-1H-indol-3-yl](oxo)acetic acid of this invention can also be characterized by its solubility rate which is shown in FIG. 5. The solubility rate intrinsic dissolution was conducted in pH 7.5 phosphate buffer medium using USP apparatus 2 (paddle) at 50 rpm. The dissolution rate may be influenced by disk rotation speed and other conditions. The solubility of polymorph A of [1-(4-tert-Butylbenzyl)-5-(3- methylphenyl)-1H-indol-3-yl](oxo)acetic acid has been determined in a number of solvents and the results are listed in Table 5. The solubilities listed in Table 5 are based on measurements taken at equilibrium.

On to `Cc1cccc(-c2ccc3c(c2)c(C(=O)C(=O)O)cn3Cc2ccc(C(C)(C)C)cc2)c1` [Polymorph A, [1-(4-tert-Butylbenzyl)-5-(3-methylphenyl)1H-indol-3-yl](oxo)acetic acid], for which the solubility reads like this: (2% polysorbate 80/0.5% methylcellulose, aqueous with cosolvent or surfactant or cyclodextrin, 2% Polysorbate80/0.5% Methylcellulose) 1.09 mg/mL (≈ 2.56 mM); (organic solvent or mixture, Acetone) 277 mg/mL (≈ 651 mM); (organic solvent or mixture, DMSO) above 500 mg/mL; (organic solvent or mixture, Ethanol) 12.2 mg/mL (≈ 28.8 mM); (organic solvent or mixture, Propylene Carbonate) 103 mg/mL (≈ 243 mM); (organic solvent or mixture, Propylene Glycol) 7.1 mg/mL (≈ 16.7 mM). The same compound gave a solubility (Deionized Water) of 0.024 mg/mL (≈ 0.0564 mM). For the same compound, the “Solubility of Polymorph A” value runs as follows: (Capryol 90) 73.8 mg/g; (Cremophore EL) 290 mg/g; (Labrasol) above 160 mg/g; (PEG 200) above 100 mg/g; (PEG 400) above 100 mg/g; (Phosal 53 MCT) 311 mg/g. Moreover, the “Solubility of Polymorph A” value (Polysorbate 80) is reported as above 200 mg/g.
